Source: ChEMBL document CHEMBL1909046, “DrugMatrix in vitro pharmacology data”

Key:
Nitric oxide synthase 1 = Nitric oxide synthase 1 (Rattus norvegicus, UniProt P29476); assay type: tissue-based, Cerebellum; note: in other assays of this panel Not Active means under 50% inhibition at 10 µM
Caspase-1 = molecular target: T1, Caspase-1 (Homo sapiens, UniProt P29466); set-up: species or system Escherichia coli;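 note: Caspase-1 enzyme inhibition assay with a peptide substrate; in other assays of this panel Not Active means under 50% inhibition at 10 µM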
T1 sequence (P29466 whole entry): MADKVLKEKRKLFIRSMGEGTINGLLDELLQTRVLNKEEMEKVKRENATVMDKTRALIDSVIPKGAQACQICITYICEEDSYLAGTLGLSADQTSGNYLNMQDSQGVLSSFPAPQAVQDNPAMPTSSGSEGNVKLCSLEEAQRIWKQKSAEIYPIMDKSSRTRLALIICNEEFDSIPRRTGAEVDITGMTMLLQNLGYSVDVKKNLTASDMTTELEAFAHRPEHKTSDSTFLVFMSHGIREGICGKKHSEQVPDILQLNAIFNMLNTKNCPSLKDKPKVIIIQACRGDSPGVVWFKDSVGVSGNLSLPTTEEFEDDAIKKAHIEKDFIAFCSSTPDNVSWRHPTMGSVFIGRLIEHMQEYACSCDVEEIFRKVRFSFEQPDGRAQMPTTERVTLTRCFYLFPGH

[1] = molecular target: Epidermal growth factor receptor (Homo sapiens, UniProt P00533); assay: DRUGMATRIX: Protein Tyrosine Kinase, EGF Receptor enzyme inhibition (substrate: Poly(Glu:Tyr)); assay type: cell-based, Insect cells; conditions: Not Active = under 50% inhibition at 10 µM
Epidermal growth factor receptor, sequence (P00533 whole entry): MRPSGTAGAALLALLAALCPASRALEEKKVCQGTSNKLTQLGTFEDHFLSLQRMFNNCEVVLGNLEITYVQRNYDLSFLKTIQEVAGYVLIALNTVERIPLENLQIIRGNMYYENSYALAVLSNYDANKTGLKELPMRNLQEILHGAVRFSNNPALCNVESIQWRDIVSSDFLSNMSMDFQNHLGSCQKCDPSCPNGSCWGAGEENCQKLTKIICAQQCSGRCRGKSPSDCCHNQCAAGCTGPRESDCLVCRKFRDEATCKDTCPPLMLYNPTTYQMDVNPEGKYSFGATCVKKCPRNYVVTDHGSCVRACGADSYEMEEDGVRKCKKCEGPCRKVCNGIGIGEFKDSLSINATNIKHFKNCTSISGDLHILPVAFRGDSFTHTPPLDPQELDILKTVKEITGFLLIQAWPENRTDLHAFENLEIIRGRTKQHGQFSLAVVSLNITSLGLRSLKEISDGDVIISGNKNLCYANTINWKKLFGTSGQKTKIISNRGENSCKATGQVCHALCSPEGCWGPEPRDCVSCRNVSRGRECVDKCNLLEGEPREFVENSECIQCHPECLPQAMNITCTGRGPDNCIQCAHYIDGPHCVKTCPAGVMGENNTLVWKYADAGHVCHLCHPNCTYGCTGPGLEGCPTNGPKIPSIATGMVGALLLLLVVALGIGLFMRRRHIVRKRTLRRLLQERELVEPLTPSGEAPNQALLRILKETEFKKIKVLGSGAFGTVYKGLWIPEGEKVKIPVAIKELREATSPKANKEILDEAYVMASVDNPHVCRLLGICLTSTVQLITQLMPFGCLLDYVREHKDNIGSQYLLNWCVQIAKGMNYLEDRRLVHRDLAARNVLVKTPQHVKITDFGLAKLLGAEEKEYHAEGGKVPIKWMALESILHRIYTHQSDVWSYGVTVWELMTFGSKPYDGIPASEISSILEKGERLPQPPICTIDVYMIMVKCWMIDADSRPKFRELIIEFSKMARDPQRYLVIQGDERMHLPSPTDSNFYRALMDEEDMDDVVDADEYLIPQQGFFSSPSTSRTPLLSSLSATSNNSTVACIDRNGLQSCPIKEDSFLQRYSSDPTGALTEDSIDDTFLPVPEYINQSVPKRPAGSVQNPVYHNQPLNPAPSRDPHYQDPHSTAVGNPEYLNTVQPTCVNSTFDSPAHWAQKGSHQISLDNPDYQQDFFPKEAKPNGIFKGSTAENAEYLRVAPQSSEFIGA

[2] = molecular target: T2, Muscarinic acetylcholine receptor M5 (Homo sapiens, UniProt P08912); assay type: cell membranes, CHO-K1, Membrane; note: in other assays of this panel Not Active means under 50% inhibition at 10 µM
T2 sequence (P08912 whole entry): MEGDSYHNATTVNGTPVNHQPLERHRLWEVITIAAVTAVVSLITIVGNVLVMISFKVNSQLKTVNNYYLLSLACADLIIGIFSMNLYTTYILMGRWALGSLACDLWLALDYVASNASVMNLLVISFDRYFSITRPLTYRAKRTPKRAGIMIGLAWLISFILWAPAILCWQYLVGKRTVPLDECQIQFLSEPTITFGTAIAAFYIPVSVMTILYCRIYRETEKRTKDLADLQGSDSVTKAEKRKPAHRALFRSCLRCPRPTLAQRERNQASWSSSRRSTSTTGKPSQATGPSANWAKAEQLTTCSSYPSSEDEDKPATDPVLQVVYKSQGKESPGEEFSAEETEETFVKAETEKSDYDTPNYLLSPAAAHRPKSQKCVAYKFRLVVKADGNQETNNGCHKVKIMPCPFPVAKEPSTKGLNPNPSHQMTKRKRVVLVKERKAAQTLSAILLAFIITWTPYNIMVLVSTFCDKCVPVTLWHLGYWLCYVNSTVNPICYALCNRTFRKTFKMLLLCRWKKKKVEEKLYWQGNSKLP

[3] = molecular target: Vascular endothelial growth factor receptor 1 (Homo sapiens, UniProt P17948); assay type: cell-based; conditions: huvec; note: in other assays of this panel Not Active means under 50% inhibition at 10 µM
Vascular endothelial growth factor receptor 1, sequence (P17948 whole entry): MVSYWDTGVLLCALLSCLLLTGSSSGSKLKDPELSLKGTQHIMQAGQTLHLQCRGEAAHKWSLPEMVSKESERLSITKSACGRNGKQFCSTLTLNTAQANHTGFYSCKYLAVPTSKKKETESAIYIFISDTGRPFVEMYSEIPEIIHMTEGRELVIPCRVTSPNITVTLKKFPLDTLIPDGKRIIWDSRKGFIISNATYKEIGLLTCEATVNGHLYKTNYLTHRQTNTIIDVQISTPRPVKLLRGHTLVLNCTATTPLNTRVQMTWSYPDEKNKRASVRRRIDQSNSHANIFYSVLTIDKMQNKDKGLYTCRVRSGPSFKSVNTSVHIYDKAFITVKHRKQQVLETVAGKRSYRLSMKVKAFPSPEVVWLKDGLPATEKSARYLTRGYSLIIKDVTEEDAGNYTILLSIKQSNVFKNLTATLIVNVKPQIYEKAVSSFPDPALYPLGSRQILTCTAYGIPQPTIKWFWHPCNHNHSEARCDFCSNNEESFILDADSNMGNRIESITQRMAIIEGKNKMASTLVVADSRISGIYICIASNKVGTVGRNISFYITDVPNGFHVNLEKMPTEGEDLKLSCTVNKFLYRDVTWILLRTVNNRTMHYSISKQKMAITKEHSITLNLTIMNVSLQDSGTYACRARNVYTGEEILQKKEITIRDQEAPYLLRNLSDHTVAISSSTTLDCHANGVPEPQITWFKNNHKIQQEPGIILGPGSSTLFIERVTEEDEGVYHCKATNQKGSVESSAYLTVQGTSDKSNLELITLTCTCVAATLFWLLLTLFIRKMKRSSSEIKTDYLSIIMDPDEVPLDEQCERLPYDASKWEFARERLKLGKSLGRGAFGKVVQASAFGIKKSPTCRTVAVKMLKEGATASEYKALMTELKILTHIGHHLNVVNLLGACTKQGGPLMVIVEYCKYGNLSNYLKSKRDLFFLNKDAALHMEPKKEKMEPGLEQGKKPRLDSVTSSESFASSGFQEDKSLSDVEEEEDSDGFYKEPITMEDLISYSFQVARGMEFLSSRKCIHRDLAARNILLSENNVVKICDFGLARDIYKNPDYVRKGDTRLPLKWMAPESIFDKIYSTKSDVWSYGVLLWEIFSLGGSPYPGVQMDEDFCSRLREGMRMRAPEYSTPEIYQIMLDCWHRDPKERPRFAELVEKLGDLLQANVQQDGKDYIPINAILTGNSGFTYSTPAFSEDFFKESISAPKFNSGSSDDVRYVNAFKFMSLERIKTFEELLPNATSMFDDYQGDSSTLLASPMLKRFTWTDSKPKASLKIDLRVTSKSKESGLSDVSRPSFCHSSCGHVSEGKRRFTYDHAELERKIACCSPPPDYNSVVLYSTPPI

[4] = molecular target: T3, Nitric oxide synthase, inducible (Mus musculus, UniProt P29477); set-up: species or system Escherichia coli
T3 sequence (P29477 whole entry): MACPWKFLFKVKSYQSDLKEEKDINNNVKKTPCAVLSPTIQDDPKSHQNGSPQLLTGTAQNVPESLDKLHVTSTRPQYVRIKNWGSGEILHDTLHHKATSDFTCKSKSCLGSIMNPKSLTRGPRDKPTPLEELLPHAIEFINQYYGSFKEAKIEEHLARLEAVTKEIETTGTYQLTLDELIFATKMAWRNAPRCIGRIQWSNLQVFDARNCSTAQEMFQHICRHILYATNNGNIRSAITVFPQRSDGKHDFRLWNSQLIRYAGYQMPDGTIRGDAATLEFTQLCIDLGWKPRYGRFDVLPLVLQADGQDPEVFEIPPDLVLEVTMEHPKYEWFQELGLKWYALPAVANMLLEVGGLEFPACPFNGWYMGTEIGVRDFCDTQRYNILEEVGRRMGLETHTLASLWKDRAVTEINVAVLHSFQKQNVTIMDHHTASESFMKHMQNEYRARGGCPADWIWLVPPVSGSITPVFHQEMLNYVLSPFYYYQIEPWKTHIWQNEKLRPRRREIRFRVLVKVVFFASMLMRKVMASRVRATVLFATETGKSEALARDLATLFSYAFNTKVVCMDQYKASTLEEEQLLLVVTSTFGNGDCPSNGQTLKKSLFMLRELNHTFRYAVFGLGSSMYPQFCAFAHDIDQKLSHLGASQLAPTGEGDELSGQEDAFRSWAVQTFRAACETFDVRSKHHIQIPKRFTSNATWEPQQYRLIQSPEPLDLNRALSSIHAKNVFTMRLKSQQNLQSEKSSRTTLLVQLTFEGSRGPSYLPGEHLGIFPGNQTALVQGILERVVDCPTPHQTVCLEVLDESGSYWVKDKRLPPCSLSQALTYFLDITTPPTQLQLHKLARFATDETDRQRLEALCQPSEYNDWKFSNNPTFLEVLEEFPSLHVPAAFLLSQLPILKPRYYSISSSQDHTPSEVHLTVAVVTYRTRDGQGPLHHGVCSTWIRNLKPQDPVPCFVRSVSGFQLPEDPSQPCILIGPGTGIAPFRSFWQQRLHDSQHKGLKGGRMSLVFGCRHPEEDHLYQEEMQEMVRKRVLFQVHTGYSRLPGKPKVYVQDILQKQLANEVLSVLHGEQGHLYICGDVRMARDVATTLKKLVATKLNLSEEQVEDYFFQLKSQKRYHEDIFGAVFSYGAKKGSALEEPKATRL

Acetylcholinesterase = Acetylcholinesterase (Homo sapiens, UniProt P22303); assay: DRUGMATRIX: Acetylcholinesterase enzyme inhibition (substrate: acetylthiocholine); assay type: cell-based, HEK293; conditions: Not Active = under 50% inhibition at 10 µM
Acetylcholinesterase, sequence (P22303 whole entry): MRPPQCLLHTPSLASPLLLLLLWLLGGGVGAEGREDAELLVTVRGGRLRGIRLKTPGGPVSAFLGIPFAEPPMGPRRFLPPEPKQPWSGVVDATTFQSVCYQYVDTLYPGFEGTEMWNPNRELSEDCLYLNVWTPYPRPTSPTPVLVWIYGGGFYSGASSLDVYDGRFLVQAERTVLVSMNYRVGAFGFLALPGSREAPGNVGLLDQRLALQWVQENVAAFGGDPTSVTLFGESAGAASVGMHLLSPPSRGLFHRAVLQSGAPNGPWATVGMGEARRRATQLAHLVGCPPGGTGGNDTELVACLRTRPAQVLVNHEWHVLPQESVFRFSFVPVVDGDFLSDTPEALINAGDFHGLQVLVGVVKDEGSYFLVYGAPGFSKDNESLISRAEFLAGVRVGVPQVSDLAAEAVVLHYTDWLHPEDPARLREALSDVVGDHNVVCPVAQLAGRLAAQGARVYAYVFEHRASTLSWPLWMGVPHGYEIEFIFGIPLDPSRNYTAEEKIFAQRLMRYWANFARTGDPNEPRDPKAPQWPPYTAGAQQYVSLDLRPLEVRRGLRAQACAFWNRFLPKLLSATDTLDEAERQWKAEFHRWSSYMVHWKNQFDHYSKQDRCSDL

Nitric oxide synthase 1, sequence (P29476 whole entry): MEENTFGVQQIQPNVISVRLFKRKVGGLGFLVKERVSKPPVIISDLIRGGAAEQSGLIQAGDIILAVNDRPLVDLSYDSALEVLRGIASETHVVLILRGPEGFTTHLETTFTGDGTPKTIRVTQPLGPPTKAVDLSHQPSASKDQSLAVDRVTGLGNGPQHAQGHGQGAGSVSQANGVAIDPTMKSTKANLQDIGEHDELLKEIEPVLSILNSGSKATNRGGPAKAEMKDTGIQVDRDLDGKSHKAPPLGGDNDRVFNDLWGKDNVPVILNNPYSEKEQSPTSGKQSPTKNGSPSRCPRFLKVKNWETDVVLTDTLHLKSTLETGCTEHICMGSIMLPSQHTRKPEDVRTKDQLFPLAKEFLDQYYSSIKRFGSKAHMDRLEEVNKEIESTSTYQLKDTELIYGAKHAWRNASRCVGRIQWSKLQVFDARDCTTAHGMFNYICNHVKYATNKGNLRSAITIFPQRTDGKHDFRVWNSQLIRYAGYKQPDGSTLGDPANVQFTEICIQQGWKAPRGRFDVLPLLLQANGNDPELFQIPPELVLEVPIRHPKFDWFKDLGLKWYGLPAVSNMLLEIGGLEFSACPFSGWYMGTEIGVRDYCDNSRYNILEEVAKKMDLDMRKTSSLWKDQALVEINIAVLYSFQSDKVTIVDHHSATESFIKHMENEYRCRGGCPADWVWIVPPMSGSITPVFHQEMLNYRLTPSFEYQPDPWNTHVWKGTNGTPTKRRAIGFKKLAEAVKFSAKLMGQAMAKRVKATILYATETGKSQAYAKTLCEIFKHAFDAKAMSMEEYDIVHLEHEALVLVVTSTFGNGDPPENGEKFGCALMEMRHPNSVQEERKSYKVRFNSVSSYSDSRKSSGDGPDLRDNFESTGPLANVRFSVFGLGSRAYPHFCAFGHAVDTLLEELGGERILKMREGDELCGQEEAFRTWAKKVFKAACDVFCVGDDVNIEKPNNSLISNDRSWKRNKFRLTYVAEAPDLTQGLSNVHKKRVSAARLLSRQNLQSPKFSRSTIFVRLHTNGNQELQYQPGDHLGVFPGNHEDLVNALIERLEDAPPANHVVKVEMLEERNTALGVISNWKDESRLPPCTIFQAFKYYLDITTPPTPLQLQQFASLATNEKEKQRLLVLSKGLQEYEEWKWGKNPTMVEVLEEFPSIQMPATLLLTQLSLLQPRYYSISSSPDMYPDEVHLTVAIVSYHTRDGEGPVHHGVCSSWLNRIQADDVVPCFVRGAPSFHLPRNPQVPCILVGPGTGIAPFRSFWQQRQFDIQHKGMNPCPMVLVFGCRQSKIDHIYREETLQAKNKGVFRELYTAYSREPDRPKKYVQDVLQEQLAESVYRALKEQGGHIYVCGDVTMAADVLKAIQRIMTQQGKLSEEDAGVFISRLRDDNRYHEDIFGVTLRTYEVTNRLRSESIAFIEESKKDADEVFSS

| SMILES | IC50 (Nitric oxide synthase 1) | IC50 (Caspase-1) | IC50 ([1]; insect cells) | IC50 ([2]; cho-k1) | IC50 [3] | IC50 [4] | IC50 (Acetylcholinesterase; hek293) | IC50 ([1]; read-out: IC50) | IC50 ([2]; read-out: IC50) | Ki ([2]; read-out: Ki) | IC50 (Acetylcholinesterase; read-out: IC50) |
| --- | --- | --- | --- | --- | --- | --- | --- | --- | --- | --- | --- |
| CC1(C)O[C@@H]2C[C@H]3[C@@H]4C[C@H](F)C5=CC(=O)C=C[C@]5(C)[C@H]4[C@@H](O)C[C@]3(C)[C@]2(C(=O)CO)O1 [FLUNISOLIDE] | Not Active | Not Active | Not Active | Not Active | Not Active | Not Active | Not Active | – | – | – | – |
| CC1(C)O[C@@H]2C[C@H]3[C@@H]4C[C@H](F)C5=CC(=O)C=C[C@]5(C)[C@@]4(F)[C@@H](O)C[C@]3(C)[C@]2(C(=O)CO)O1 [FLUOCINOLONE ACETONIDE] | Not Active | Not Active | Not Active | Not Active | Not Active | Not Active | Not Active | – | – | – | – |
| CC1(C)O[C@@H]2C[C@H]3[C@@H]4C[C@H](F)C5=CC(=O)CC[C@]5(C)[C@H]4[C@@H](O)C[C@]3(C)[C@]2(C(=O)CO)O1 [FLURANDRENOLIDE] | Not Active | Not Active | Not Active | Not Active | Not Active | Not Active | Not Active | – | – | – | – |
| CN(C)c1ccc(C(=C2C=CC(=[N+](C)C)C=C2)c2ccc(N(C)C)cc2)cc1.[Cl-] [GENTIAN VIOLET] | Not Active | Not Active | – | – | Not Active | Not Active | – | 473 nM | 535 nM | 384 nM | 5.85 µM |
| Cc1ccc(S(=O)(=O)NC(=O)NN2CC3CCCC3C2)cc1 (configuration not stated) [GLICLAZIDE] | Not Active | Not Active | Not Active | Not Active | Not Active | Not Active | Not Active | – | – | – | – |
| NC(=O)NO [HYDROXYUREA] | Not Active | Not Active | Not Active | Not Active | Not Active | Not Active | Not Active | – | – | – | – |
| CC(C)Cc1ccc(C(C)C(=O)O)cc1 (configuration not stated) [IBUPROFEN] | Not Active | Not Active | Not Active | Not Active | Not Active | Not Active | Not Active | – | – | – | – |
| COc1ccc2c(c1)c(CC(=O)O)c(C)n2C(=O)c1ccc(Cl)cc1 [INDOMETHACIN] | Not Active | Not Active | Not Active | Not Active | Not Active | Not Active | Not Active | – | – | – | – |
| CC(C(=O)O)c1cccc(C(=O)c2ccccc2)c1 (configuration not stated) [KETOPROFEN] | Not Active | Not Active | Not Active | Not Active | Not Active | Not Active | Not Active | – | – | – | – |
| Nc1ccn([C@@H]2CS[C@H](CO)O2)c(=O)n1 [LAMIVUDINE] | Not Active | Not Active | Not Active | Not Active | Not Active | Not Active | Not Active | – | – | – | – |
| O=S(=O)([O-])CCS.[Na+] [MESNA] | Not Active | Not Active | Not Active | Not Active | Not Active | Not Active | Not Active | – | – | – | – |
| C#C[C@]1(O)CC[C@H]2[C@@H]3CCc4cc(OC)ccc4[C@H]3CC[C@@]21C [MESTRANOL] | Not Active | Not Active | Not Active | Not Active | Not Active | Not Active | Not Active | – | – | – | – |
| CC(=O)Nc1cccc(O)c1 [METACETAMOL] | Not Active | Not Active | Not Active | Not Active | Not Active | Not Active | Not Active | – | – | – | – |
| Cc1ncc([N+](=O)[O-])n1CCO [METRONIDAZOLE] | Not Active | Not Active | Not Active | Not Active | Not Active | Not Active | Not Active | – | – | – | – |
| CC(C)(C(=O)c1cccnc1)c1cccnc1 [METYRAPONE] | Not Active | Not Active | Not Active | Not Active | Not Active | Not Active | Not Active | – | – | – | – |
| Oc1ccc(OCc2ccccc2)cc1 [MONOBENZONE] | Not Active | Not Active | Not Active | Not Active | Not Active | Not Active | Not Active | – | – | – | – |
| CC(C)(Oc1ccc(C2CCCc3ccccc32)cc1)C(=O)O (configuration not stated) [NAFENOPIN] | Not Active | Not Active | Not Active | Not Active | Not Active | Not Active | Not Active | – | – | – | – |
| CC(C)[C@H]1CC[C@H](C(=O)N[C@H](Cc2ccccc2)C(=O)O)CC1 [NATEGLINIDE] | Not Active | Not Active | Not Active | Not Active | Not Active | Not Active | Not Active | – | – | – | – |
| CCN[C@@H]1C[C@H](N)[C@@H](O[C@H]2OC(CN)=CC[C@H]2N)[C@H](O)[C@H]1O[C@H]1OC[C@](C)(O)[C@H](NC)[C@H]1O [NETILMICIN] | Not Active | Not Active | Not Active | Not Active | Not Active | Not Active | Not Active | – | – | – | – |
| COC(=O)C1=C(C)NC(C)=C(C(=O)OCC(C)C)C1c1ccccc1[N+](=O)[O-] (configuration not stated) [NISOLDIPINE] | Not Active | Not Active | Not Active | Not Active | Not Active | Not Active | Not Active | – | – | – | – |
| CCOC(=O)C1=C(C)NC(C)=C(C(=O)OC)C1c1cccc([N+](=O)[O-])c1 (configuration not stated) [NITRENDIPINE] | Not Active | Not Active | Not Active | Not Active | Not Active | Not Active | Not Active | – | – | – | – |
| C#C[C@]1(OC(C)=O)CC[C@H]2[C@@H]3CCC4=CC(=O)CC[C@@H]4[C@H]3CC[C@@]21C [NORETHINDRONE ACETATE] | Not Active | Not Active | Not Active | Not Active | Not Active | Not Active | Not Active | – | – | – | – |
| COc1ccc2[nH]c([S+]([O-])Cc3ncc(C)c(OC)c3C)nc2c1 (configuration not stated) [OMEPRAZOLE] | Not Active | Not Active | Not Active | Not Active | Not Active | Not Active | Not Active | – | – | – | – |
